“And” between values parts separate entries of the source, which are not always exact repeats. Equal entries are not always repeated. Structures can show the parent of a compound that is named as a salt. Each block holds one compound with its values, some of them ahead of it.
Experiments:
male Swiss-Webster mice [1] = test: Analgesic efficacy in mouse model: electrical stimulation of abdominal skin, vocalization threshold, analgesia score and duration; format: in vivo; set-up: key to analgesia score, 15 min / analgesia score, 30 min / analgesia score, 45 min / analgesia score, 60 min / analgesia score, 75 min / analgesia score, 90 min / analgesia score, 105 min / analgesia score, 120 min / analgesia score, 135 min: 1 = analgesia; 0 = no analgesia; 10 = partial analgesia; key to analgesia score 150′ / analgesia score 5′ / analgesia score 30′ / analgesia score 60′ / analgesia score 75′ / analgesia score 90′ / analgesia score 105′ / analgesia score 120′ / analgesia score 135′: If the anesthesia was complete the numeric value given was 1.0; when analgesia was partial (incomplete) it received the numeric value of 10.0 in the Table 1 and in other Tables a score of 0.5; for no anesthesia the numeric score was 0
Excerpt: Analgesic efficacy in male Swiss Webster mouse model: Testing for analgesia was done by electrical stimulation of mice skin as described elsewhere (G. J. Grant et al, Pharmaceutical Research, 18, no 3, 336-343, 2001). Pain as electrical stimulation at the desired intensity was inflicted to the skin of shaved mice abdomen. The current generator (model S48, Grass Instruments (W. Warwick, R.I. USA) was used. Mice (male Swiss-Webster, 26±3 gr (n=7 per group) were used. The mice were shaved the hair overlying the abdomen and tested prior to injection to determine the Individual vocalization threshold of each mice. Than the mice were injected with (0.3-0.4 ml of one of the following: free bupivacaine, or LMVV-BUP or various LMVV entrapped in Ca-alginate or chitosan-oxalate cross linked hydrogels through 30G needle. The analgesia duration was than followed as specified in the experiment itself. All experiments were approved and ratified by the HUJI ethic committee.
Analysis of the in vivo mice analgesia: A numerical score to the spreadsheet was introduced for the evaluation of the analgesic effect of various liposome preparations performance in vivo: For each time period (e.g. 4 hrs, 8 hrs etc) a numeric value to each mouse in the experiment was given. If the anesthesia was complete the numeric value given was 1.0; when analgesia was partial (incomplete) it received the numeric value of 10.0 in the Table 1 and in other Tables a score of 0.5 and for no anesthesia the numeric score was 0. The mean for each subgroup was calculated separately (i.e. 1% 300 μl, 2%[…]).
Testing for analgesia was done by electrical stimulation of the skin directly overlying the abdomen at the site of injection using a current generator (model S48, Grass Instruments) as described in Grant et al 2001. (G. J. Grant et al, pharmaceutical research, vol 18, no 3, 336-343, 2001), and in Methods above.
Mice (male Swiss-Webster 26±3 gr) were tested prior to injection to determine the vocalization threshold than were injected with liposomal BUP or free BUP than followed by determination of analgesia duration (The duration of the main in vivo screening study was 2 days and started after a preliminary study using two different injection volumes of formulation #4 (referred to as the PILOT in Table 9A) was performed. […]
Testing for analgesia was performed by electrical stimulation of mice skin as described elsewhere (G. J. Grant et al, Pharmaceutical Research, 18, no 3, 336-343, 2001). Pain by electrical stimulation at the desired intensity was applied to the skin of shaved mice abdomen. The current generator (model S48, Grass Instruments (W. Warwick, R.I. USA) was used. Mice (male Swiss-Webster, 26±3 gr (n=8 per group) were used. The mice were shaved the hair overlying the abdomen and tested prior to injection to determine the Individual vocalization threshold of each mice. Than the mice were injected through 30G needle with 0.25 ml of one of the following formulation: • 1—Alginate beads containing LMVV-BUP (010609), were stored at 4 c for 2 months in 0.5% bup, PH=5.5 (see B3). The external solution of the beads were removed before injection without washing them. • 2—Alginate beads containing LMVV-BUP (010609), were stored at 4 c for 2 months in 2% bup, PH=5.5 (see B3). The external solution of the beads were removed and the beads washed (2.5 ml saline×5) before injection. • 3—Alginate beads containing LMVV-BUP (010609), were stored at 4 c for 2 months in 1% bup, PH=5.5 (see B3). The external solution of the beads were removed before injection without washing them. • 4—Alginate beads containing LMVV-BUP (010609), were stored at 4 c for 2 months in saline, PH=5.5 (see B3). The external solution of the beads were removed before injection without washing them. • 5—LMVV-BUP (010609) were stored at 4 c for 2 months in saline PH=5.5. • 6—BLANK: Aginate beads containing LMVV without bup, were stored at 4 c for 2 months in saline PH=5.5. […]

[2] = cited from earlier work
male Swiss-Webster mice [3] = conditions: previously determined (Grant et al. 2004, U.S. Pat. No. 6,162,462); cited from earlier work
[4] = Free (non liposomal) and total bupivacaine determination by HPLC (% free BUP in the preparation); format: physicochemical; conditions: Example 2 samples
Procedure: Bupivacaine determination: free (non liposomal) or total (liposomal plus free) concentration of bupivacaine was measured by HPLC (Grant et al Parm. Res., 2001 18, N3, 336-343; Anesthesiology, 2004, 101, 133-137).
Drug/lipid ratio determination for hydrogel beads: The washed beads were injected through a 25G×⅝″ (0.5 mm×16 mm) syringe needle to have homogenous dispersion and were diluted ×10 with saline: • 50 μl and 100 μl used for PL. determination. • 100 μl centrifuged 10′ 2000 g at 4° C. and the supernatant diluted ×10 with isopropanol (IPA) to determine free bupivacaine. • 100 or 200 μl heated in boiling water, than centrifuged 10′ at 2000 g. The supernatant was diluted ×10 with IPA to determine total bupivacaine by HPLC.
All samples for bupivacaine determination were centrifuged for 2 min. at 5000 g (using Eppendof centrifuge) after dilution in IPA. The upper phase was removed and analyzed by HPLC.
All liposomal formulations were analyzed for free non liposomal BUP and total BUP before the in vivo experiment followed by their concentration to reach the level of 2% (w/w) BUP (for liposome formulations #1, 2, 3, 5, 6, 8) and to 1% (w/w BUP for liposome formulations #4 & 7). BUP was loaded into the liposomes either by active loading (CA or AS gradient) or by passive loading as described in Table 8.
Free Bup (Non Liposomal Bup) Determination: […]

[5] = Bup Conc 0.25%, Volume 150 ul, 0.375 mg Bup, individual mice
[6] = Bup Conc 0.25%, Volume 150 ul, 0.375 mg Bup, individual mice, hydrochloride
[7] = Bup Conc 0.25%, Volume 300 ul, 0.75 mg Bup, individual mice
[8] = Bup Conc 0.25%, Volume 300 ul, 0.75 mg Bup, individual mice, hydrochloride
[9] = Bup Conc 0.50%, Volume 150 ul, 0.75 mg Bup, individual mice
[10] = Bup Conc 0.50%, Volume 150 ul, 0.75 mg Bup, individual mice, hydrochloride

SMILES: CCCCN1CCCCC1C(=O)Nc1c(C)cccc1C (stereo not shown) [Standard Bupivacaine, Bupivacaine hydrochloride]
analgesia score, 15 min (male Swiss-Webster mice [1]; [5]): 1
analgesia score, 30 min (male Swiss-Webster mice [1]; [5]): 1
analgesia score, 45 min (male Swiss-Webster mice [1]; [5]): 1
analgesia score, 90 min (male Swiss-Webster mice [1]; [5]): 0
analgesia score, 60 min (male Swiss-Webster mice [1]; [6]): 0 (5×) and 1 (2×) and 10
analgesia score, 75 min (male Swiss-Webster mice [1]; [6]): 0 (7×) and 10
analgesia score, 15 min (male Swiss-Webster mice [1]; [7]): 1
analgesia score, 30 min (male Swiss-Webster mice [1]; [7]): 1
analgesia score, 45 min (male Swiss-Webster mice [1]; [7]): 1
analgesia score, 60 min (male Swiss-Webster mice [1]; [7]): 1
analgesia score, 135 min (male Swiss-Webster mice [1]; [7]): 0
analgesia score, 75 min (male Swiss-Webster mice [1]; [8]): 0 and 1 (7×)
analgesia score, 90 min (male Swiss-Webster mice [1]; [8]): 0 and 1 (5×) and 10 (2×)
analgesia score, 105 min (male Swiss-Webster mice [1]; [8]): 0 (5×) and 10 and 1 (2×)
analgesia score, 120 min (male Swiss-Webster mice [1]; [8]): 0 (7×) and 10
analgesia score, 15 min (male Swiss-Webster mice [1]; [9]): 1
analgesia score, 30 min (male Swiss-Webster mice [1]; [9]): 1
analgesia score, 45 min (male Swiss-Webster mice [1]; [9]): 1
analgesia score, 105 min (male Swiss-Webster mice [1]; [9]): 0
analgesia score, 60 min (male Swiss-Webster mice [1]; [10]): 1 (7×) and 10
analgesia score, 75 min (male Swiss-Webster mice [1]; [10]): 1 (6×) and 0 and 10
analgesia score, 90 min (male Swiss-Webster mice [1]; [10]): 0 (4×) and 10 (2×) and 1 (2×)
analgesia score, 15 min (male Swiss-Webster mice [1]; per mouse, free BUP 0.25%, 150 ul, 0.375 mg Bup, 15 min): 1
analgesia score, 30 min (male Swiss-Webster mice [1]; per mouse, free BUP 0.25%, 150 ul, 0.375 mg Bup, 30 min): 1
analgesia score, 45 min (male Swiss-Webster mice [1]; per mouse, free BUP 0.25%, 150 ul, 0.375 mg Bup, 45 min): 1
analgesia score, 60 min (male Swiss-Webster mice [1]; per mouse, free BUP 0.25%, 150 ul, 0.375 mg Bup, 60 min, hydrochloride): 0 (5×) and 1 (2×) and 10
analgesia score, 75 min (male Swiss-Webster mice [1]; per mouse, free BUP 0.25%, 150 ul, 0.375 mg Bup, 75 min, hydrochloride): 0 (7×) and 10
analgesia score, 90 min (male Swiss-Webster mice [1]; per mouse, free BUP 0.25%, 150 ul, 0.375 mg Bup, 90 min): 0
analgesia score, 15 min (male Swiss-Webster mice [1]; per mouse, free BUP 0.25%, 300 ul, 0.75 mg Bup, 15 min): 1
analgesia score, 30 min (male Swiss-Webster mice [1]; per mouse, free BUP 0.25%, 300 ul, 0.75 mg Bup, 30 min): 1
analgesia score, 45 min (male Swiss-Webster mice [1]; per mouse, free BUP 0.25%, 300 ul, 0.75 mg Bup, 45 min): 1
analgesia score, 60 min (male Swiss-Webster mice [1]; per mouse, free BUP 0.25%, 300 ul, 0.75 mg Bup, 60 min): 1
analgesia score, 75 min (male Swiss-Webster mice [1]; per mouse, free BUP 0.25%, 300 ul, 0.75 mg Bup, 75 min, hydrochloride): 0 and 1 (7×)
analgesia score, 90 min (male Swiss-Webster mice [1]; per mouse, free BUP 0.25%, 300 ul, 0.75 mg Bup, 90 min, hydrochloride): 0 and 1 (5×) and 10 (2×)
analgesia score, 105 min (male Swiss-Webster mice [1]; per mouse, free BUP 0.25%, 300 ul, 0.75 mg Bup, 105 min, hydrochloride): 0 (5×) and 10 and 1 (2×)
analgesia score, 120 min (male Swiss-Webster mice [1]; per mouse, free BUP 0.25%, 300 ul, 0.75 mg Bup, 120 min, hydrochloride): 0 (7×) and 10
analgesia score, 135 min (male Swiss-Webster mice [1]; per mouse, free BUP 0.25%, 300 ul, 0.75 mg Bup, 135 min): 0
analgesia score, 15 min (male Swiss-Webster mice [1]; per mouse, free BUP 0.50%, 150 ul, 0.75 mg Bup, 15 min): 1
analgesia score, 30 min (male Swiss-Webster mice [1]; per mouse, free BUP 0.50%, 150 ul, 0.75 mg Bup, 30 min): 1
analgesia score, 45 min (male Swiss-Webster mice [1]; per mouse, free BUP 0.50%, 150 ul, 0.75 mg Bup, 45 min): 1
analgesia score, 60 min (male Swiss-Webster mice [1]; per mouse, free BUP 0.50%, 150 ul, 0.75 mg Bup, 60 min, hydrochloride): 1 (7×) and 10
analgesia score, 75 min (male Swiss-Webster mice [1]; per mouse, free BUP 0.50%, 150 ul, 0.75 mg Bup, 75 min, hydrochloride): 1 (6×) and 0 and 10
analgesia score, 90 min (male Swiss-Webster mice [1]; per mouse, free BUP 0.50%, 150 ul, 0.75 mg Bup, 90 min, hydrochloride): 0 (4×) and 10 (2×) and 1 (2×)
analgesia score, 105 min (male Swiss-Webster mice [1]; per mouse, free BUP 0.50%, 150 ul, 0.75 mg Bup, 105 min): 0
solubility limit of bupivacaine at pH 5.5 ([2]; 25° C., pH 5.5): below 2.9%
solubility of bupivacaine 25° C. at pH 2.0 ([2]; pH 2.0): 7.5%
mass solubility of bupivacaine at 25° C. in pH 5 ([2]; pH 5): 2.9%
mass solubility of bupivacaine at 25° C. in pH 6 ([2]; pH 6): 0.55%
duration of analgesic effect post injection (male Swiss-Webster mice [3]): approximately 75 minutes

Free bup concentration(%) after injection through G31 syringe needle ([4]; analyzed after the experiment was finished): 0.25%
Free bup concentration(%) after injection through G31 syringe needle ([4]; analyzed before starting the experiment): 0.25%
SMILES: CCCCN1CCCCC1C(=O)Nc1c(C)cccc1C (stereo not shown) [compound 9]
analgesia duration, comparison of Example 2 formulations (male Swiss-Webster mice [1]; Example 2, mice): shortest analgesia duration
analgesia score 5′ (male Swiss-Webster mice [1]; Example 2 group 9, per mouse, 0.25% bup 300 ul, 5 min): 1
analgesia score 30′ (male Swiss-Webster mice [1]; Example 2 group 9, per mouse, 0.25% bup 300 ul, 30 min): 1
analgesia score 60′ (male Swiss-Webster mice [1]; Example 2 group 9, per mouse, 0.25% bup 300 ul, 60 min): 1
analgesia score 75′ (male Swiss-Webster mice [1]; Example 2 group 9, per mouse, 0.25% bup 300 ul, 75 min, listed as standard free bupivacaine): 1 (3×) and 0 (2×)
analgesia score 90′ (male Swiss-Webster mice [1]; Example 2 group 9, per mouse, 0.25% bup 300 ul, 90 min, listed as standard free bupivacaine): 1 (3×) and 0 (2×)
analgesia score 105′ (male Swiss-Webster mice [1]; Example 2 group 9, per mouse, 0.25% bup 300 ul, 105 min, listed as standard free bupivacaine): 1 and 0 (2×)
analgesia score 120′ (male Swiss-Webster mice [1]; Example 2 group 9, per mouse, 0.25% bup 300 ul, 120 min, listed as standard free bupivacaine): 0.5 and 0 (2×)
analgesia score 135′ (male Swiss-Webster mice [1]; Example 2 group 9, per mouse, 0.25% bup 300 ul, 135 min): 0
analgesia score 150′ (male Swiss-Webster mice [1]; Example 2 group 9, per mouse, 0.25% bup 300 ul, 150 min): 0
